# Results: patent US20160158179A1, “NANOEMULSION THERAPEUTIC COMPOSITIONS AND METHODS OF USING THE SAME” (THE REGENTS OF THE UNIVERSITY OF MICHIGAN, priority 2008, published 2016)
# How the values were obtained:
# [1] = tested on: methicillin-resistant Staphylococcus aureus (MRSA) clinical isolates; assay: MIC and MBC susceptibility assays (CLSI); type: cell-based; settings: for MIC50 (15): value at rank 15 of 29; for MIC50(26): value at rank 26 of 29
# [2] = tested on: Stenotrophomonas maltophilia; assay: MIC and MBC determination (CLSI, alamar blue), CF isolates; settings: Stenotrophomonas
# Burkholderia cenocepacia = assay: as above
# Acinetobacter baumannii = assay: MIC and MBC determination (CLSI, alamar blue); settings: Acinetobacter
# Pseudomonas aeruginosa = assay: MIC and MBC determination (CLSI, alamar blue), CF isolates; settings: Pseudomonas
# Burkholderia strains = assay: Checkerboard synergy study (FIC/FBC index); type: cell-based, Burkholderia cenocepacia; settings: in combination with P4075EC+EDTA
# Stenotrophomonas strains = assay: Checkerboard synergy study (FIC/FBC index); type: cell-based, Stenotrophomonas maltophilia; settings: in combination with P4075EC+EDTA
# Acinetobacter strains = assay: Checkerboard synergy study (FIC/FBC index); type: cell-based, Acinetobacter baumannii; settings: in combination with P4075EC+EDTA
# [3] = tested on: Pseudomonas, Burkholderia, Acinetobacter and Stenotrophomonas; assay: MIC and MBC determination (CLSI, alamar blue), all strains of Example 8
# [4] = tested on: H. influenzae clinical isolates; assay: MIC and MBC susceptibility assays (CLSI); type: cell-based, Haemophilus influenzae; settings: for MIC 50: Haemophilus influenzae, all H. influenzae strains of Table 6, control antibiotics
# [5] = tested on: H. influenzae clinical isolates; settings: ATCC H. influenzae 49247 quality control isolate; acceptable QC range; cited from earlier work
# [6] = share of 10 Burkholderia strains with synergy
# [7] = share of 10 Stenotrophomonas strains with synergy
# [8] = share of 10 Acinetobacter strains with synergy
# [9] = MBC analysis table, silver nitrate column
structure (smiles),measurement,setting,value
"C[C@H]1c2cccc(O)c2C(O)=C2C(=O)[C@]3(O)C(O)=C(C(N)=O)C(=O)[C@@H](N(C)C)[C@@H]3[C@@H](O)[C@@H]21 [doxycyline, doxycycline]",MIC 90,[1]; clinical isolates of MRSA,4 µg/mL
C[C@H]1COc2c(N3CCN(C)CC3)c(F)cc3c(=O)c(C(=O)O)cn1c23 [Levofloxacin],MIC 50,[2],2 µg/mL
same,MIC 90,[2],8 µg/mL
same,MIC 90,Burkholderia cenocepacia; Burkholderia,8 µg/mL
same,MIC 50,Burkholderia cenocepacia; Burkholderia cenocepacia,2 µg/mL
same,MIC 90,Burkholderia cenocepacia; Burkholderia cenocepacia,8 µg/mL
same,MIC 50,Acinetobacter baumannii,16 µg/mL
same,MIC 90,Acinetobacter baumannii,>16 µg/mL
same,MIC 50,Pseudomonas aeruginosa,0.5 µg/mL
same,MIC 90,Pseudomonas aeruginosa,8 µg/mL
NC[C@H]1O[C@H](O[C@H]2[C@H](O)[C@@H](O[C@H]3O[C@H](CO)[C@@H](O)[C@H](N)[C@H]3O)[C@H](N)C[C@@H]2N)[C@H](N)C[C@@H]1O [Tobra],FBC,Burkholderia strains; isolate NB21,0.48
same,FIC,Burkholderia strains; isolate NB21,0.27
same,Synergy (FBC),Burkholderia strains; isolate NB21,yes
same,Synergy (FIC),Burkholderia strains; isolate NB21,yes
same,FIC,Burkholderia strains; isolate NB22,0.35
same,Synergy (FBC),Burkholderia strains; isolate NB22,indifferent
same,Synergy (FIC),Burkholderia strains; isolate NB22,yes
same,Synergy (FBC),Burkholderia strains; isolate NB23,indifferent
same,Synergy (FIC),Burkholderia strains; isolate NB23,indifferent
same,Synergy (FBC),Burkholderia strains; isolate NB24,indifferent
same,Synergy (FIC),Burkholderia strains; isolate NB24,indifferent
same,FBC,Burkholderia strains; isolate NB25,0.99
same,Synergy (FBC),Burkholderia strains; isolate NB25,indifferent
same,Synergy (FIC),Burkholderia strains; isolate NB25,indifferent
same,FBC,Burkholderia strains; isolate NB26,0.92
same,FIC,Burkholderia strains; isolate NB26,0.12
same,Synergy (FBC),Burkholderia strains; isolate NB26,indifferent
same,Synergy (FIC),Burkholderia strains; isolate NB26,yes
same,Synergy (FBC),Burkholderia strains; isolate NB27,indifferent
same,Synergy (FIC),Burkholderia strains; isolate NB27,indifferent
same,FIC,Burkholderia strains; isolate NB28b,0.54
same,Synergy (FBC),Burkholderia strains; isolate NB28b,indifferent
same,Synergy (FIC),Burkholderia strains; isolate NB28b,yes
same,FBC,Burkholderia strains; isolate NB29,0.07
same,FIC,Burkholderia strains; isolate NB29,0.32
same,Synergy (FBC),Burkholderia strains; isolate NB29,yes
same,Synergy (FIC),Burkholderia strains; isolate NB29,yes
same,FBC,Burkholderia strains; isolate NB30,0.54
same,FIC,Burkholderia strains; isolate NB30,0.27
same,Synergy (FBC),Burkholderia strains; isolate NB30,yes
same,Synergy (FIC),Burkholderia strains; isolate NB30,yes
same,% FBC Synergy,Burkholderia strains; [6],30%
same,% FIC Synergy,Burkholderia strains; [6],50%
same,FIC,Stenotrophomonas strains; isolate NB42,0.14
same,Synergy (FBC),Stenotrophomonas strains; isolate NB42,indifferent
same,Synergy (FIC),Stenotrophomonas strains; isolate NB42,yes
same,FIC,Stenotrophomonas strains; isolate NB43,1.40
same,Synergy (FBC),Stenotrophomonas strains; isolate NB43,indifferent
same,Synergy (FIC),Stenotrophomonas strains; isolate NB43,indifferent
same,FIC,Stenotrophomonas strains; isolate NB44,1.5
same,Synergy (FBC),Stenotrophomonas strains; isolate NB44,indifferent
same,Synergy (FIC),Stenotrophomonas strains; isolate NB44,indifferent
same,FBC,Stenotrophomonas strains; isolate NB45,1.50
same,FIC,Stenotrophomonas strains; isolate NB45,0.97
same,Synergy (FBC),Stenotrophomonas strains; isolate NB45,indifferent
same,Synergy (FIC),Stenotrophomonas strains; isolate NB45,indifferent
same,% FBC Synergy,Stenotrophomonas strains; [7],0%
same,% FIC Synergy,Stenotrophomonas strains; [7],20%
same,FBC,Acinetobacter strains; isolate NB31,1.50
same,FIC,Acinetobacter strains; isolate NB31,0.98
same,Synergy (FBC),Acinetobacter strains; isolate NB31,no
same,Synergy (FIC),Acinetobacter strains; isolate NB31,indifferent
same,FBC,Acinetobacter strains; isolate NB32,1.79
same,FIC,Acinetobacter strains; isolate NB32,0.88
same,Synergy (FBC),Acinetobacter strains; isolate NB32,no
same,Synergy (FIC),Acinetobacter strains; isolate NB32,indifferent
same,FBC,Acinetobacter strains; isolate NB33,1.75
same,FIC,Acinetobacter strains; isolate NB33,1.27
same,Synergy (FBC),Acinetobacter strains; isolate NB33,no
same,Synergy (FIC),Acinetobacter strains; isolate NB33,indifferent
same,FBC,Acinetobacter strains; isolate NB34,0.24
same,FIC,Acinetobacter strains; isolate NB34,0.41
same,Synergy (FBC),Acinetobacter strains; isolate NB34,yes
same,Synergy (FIC),Acinetobacter strains; isolate NB34,yes
same,FBC,Acinetobacter strains; isolate NB35,1.44
same,FIC,Acinetobacter strains; isolate NB35,1.21
same,Synergy (FBC),Acinetobacter strains; isolate NB35,no
same,Synergy (FIC),Acinetobacter strains; isolate NB35,indifferent
same,FIC,Acinetobacter strains; isolate NB36,3.30
same,Synergy (FBC),Acinetobacter strains; isolate NB36,no
same,Synergy (FIC),Acinetobacter strains; isolate NB36,indifferent
same,FBC,Acinetobacter strains; isolate NB37,1.72
same,FIC,Acinetobacter strains; isolate NB37,0.75
same,Synergy (FBC),Acinetobacter strains; isolate NB37,no
same,Synergy (FIC),Acinetobacter strains; isolate NB37,indifferent
same,FIC,Acinetobacter strains; isolate NB38,1.05
same,Synergy (FBC),Acinetobacter strains; isolate NB38,no
same,Synergy (FIC),Acinetobacter strains; isolate NB38,indifferent
same,FBC,Acinetobacter strains; isolate NB39,3.52
same,FIC,Acinetobacter strains; isolate NB39,3.30
same,Synergy (FBC),Acinetobacter strains; isolate NB39,no
same,Synergy (FIC),Acinetobacter strains; isolate NB39,indifferent
same,FBC,Acinetobacter strains; isolate NB40,3.01
same,FIC,Acinetobacter strains; isolate NB40,3.01
same,Synergy (FBC),Acinetobacter strains; isolate NB40,no
same,Synergy (FIC),Acinetobacter strains; isolate NB40,indifferent
same,% FBC Synergy,Acinetobacter strains; [8],10%
same,% FIC Synergy,Acinetobacter strains; [8],10%
CO[C@@]1(NC(=O)Cc2cccs2)C(=O)N2C(C(=O)O)=C(COC(N)=O)CS[C@@H]21 [Cefoxitin],MIC 50,[2],>256 µg/mL
same,MIC 90,[2],>256 µg/mL
same,MIC 90,Burkholderia cenocepacia; Burkholderia,256 µg/mL
same,MIC 50,Acinetobacter baumannii,>256 µg/mL
same,MIC 90,Acinetobacter baumannii,>256 µg/mL
same,MIC 50,Pseudomonas aeruginosa,>256 µg/mL
same,MIC 90,Pseudomonas aeruginosa,>256 µg/mL
C[C@H]1COc2c(N3CCN(C)CC3)c(F)cc3c(=O)c(C(=O)O)cn1c23 [Levo],MIC50 (15),[1]; MRSA clinical isolates,8 µg/mL
CC[C@H]1OC(=O)[C@H](C)[C@@H](O[C@H]2C[C@@](C)(OC)[C@@H](O)[C@H](C)O2)[C@H](C)[C@@H](O[C@@H]2O[C@H](C)C[C@H](N(C)C)[C@H]2O)[C@](C)(O)C[C@@H](C)C(=O)[C@H](C)[C@@H](O)[C@]1(C)O [Eryth],MIC50 (15),[1]; MRSA clinical isolates,64 µg/mL
C[C@@H](O)[C@H]1C(=O)N2C(C(=O)O)=C(SCCN=CN)C[C@H]12 [Imipenem],MIC 50,[2],>32 µg/mL
same,MIC 90,[3],≥ 2 µg/mL
Cc1onc(-c2ccccc2)c1C(=O)N[C@@H]1C(=O)N2[C@@H]1SC(C)(C)[C@@H]2C(=O)O [Ox],MIC50 (15),[1]; MRSA clinical isolates,>16 µg/mL
CN[C@H](CC(C)C)C(=O)N[C@H]1C(=O)N[C@@H](CC(N)=O)C(=O)N[C@H]2C(=O)N[C@H]3C(=O)N[C@H](C(=O)N[C@H](C(=O)O)c4cc(O)cc(O)c4-c4cc3ccc4O)[C@H](O)c3ccc(c(Cl)c3)Oc3cc2cc(c3O[C@@H]2O[C@H](CO)[C@@H](O)[C@H](O)[C@H]2O[C@H]2C[C@](C)(N)[C@H](O)[C@H](C)O2)Oc2ccc(cc2Cl)[C@H]1O [Vanco],MIC50 (15),[1]; MRSA clinical isolates,1 µg/mL
CC(C)(O/N=C(\C(=O)N[C@@H]1C(=O)N2C(C(=O)[O-])=C(C[n+]3ccccc3)CS[C@H]12)c1csc(N)n1)C(=O)O [Ceftazidime],MIC 50,[2],>32 µg/mL
same,MIC 90,[2],>32 µg/mL
same,MIC 90,Burkholderia cenocepacia; Burkholderia,16 µg/mL
same,MIC 50,Burkholderia cenocepacia; Burkholderia cenocepacia,8 µg/mL
same,MIC 90,Burkholderia cenocepacia; Burkholderia cenocepacia,16 µg/mL
same,MIC 50,Acinetobacter baumannii,>32 µg/mL
same,MIC 90,Acinetobacter baumannii,>32 µg/mL
O=[N+]([O-])[O-].[Ag+] [silver nitrate],MIC50 (15),[1]; [9],0.0025 µg/mL
same,MIC50(26),[1]; [9],>0.01 µg/mL
same,MIC 90,[1]; clinical isolates of MRSA,0.00063%
same,MIC50 (15),[1]; silver nitrate column,0.00031 µg/mL
same,MIC50(26),[1]; silver nitrate column,0.00063 µg/mL
CN(C)[C@@H]1C(O)=C(C(N)=O)C(=O)[C@@]2(O)C(O)=C3C(=O)c4c(O)cccc4[C@@](C)(O)[C@H]3C[C@@H]12 [Tetracycline],MIC 50,[4],2 µg/mL
"CC[C@H]1OC(=O)[C@H](C)[C@@H](O[C@H]2C[C@@](C)(OC)[C@@H](O)[C@H](C)O2)[C@H](C)[C@@H](O[C@@H]2O[C@H](C)C[C@H](N(C)C)[C@H]2O)[C@](C)(O)C[C@@H](C)CN(C)[C@H](C)[C@@H](O)[C@]1(C)O [Azi, azithromycin]",susceptibility of the majority of isolates by MIC90 values,[4],susceptible
same,MIC 50,[4],2 µg/mL
same,QC MIC range,[5],A (QC MIC range is 1-4) μg/ml
"CCC[C@@H]1C[C@@H](C(=O)N[C@@H]([C@H]2O[C@H](SC)[C@H](O)[C@@H](O)[C@H]2O)[C@H](C)Cl)N(C)C1 [Cli, clindamycin]",MIC 50,[4],16 µg/mL
"CC1(C)S[C@@H]2[C@H](NC(=O)[C@H](N)c3ccccc3)C(=O)N2[C@H]1C(=O)O [Amp, ampicillin]",MIC 50,[4],> 32 µg/mL
same,QC MIC range,[5],B (QC MIC range is 2-8) μg/ml
C[C@H]1c2cccc(O)c2C(O)=C2C(=O)[C@]3(O)C(O)=C(C(N)=O)C(=O)[C@@H](N(C)C)[C@@H]3[C@@H](O)[C@@H]21 [Dox],MIC50 (15),[1]; MRSA clinical isolates,0.25 µg/mL
CN[C@H](CC(C)C)C(=O)N[C@H]1C(=O)N[C@@H](CC(N)=O)C(=O)N[C@H]2C(=O)N[C@H]3C(=O)N[C@H](C(=O)N[C@H](C(=O)O)c4cc(O)cc(O)c4-c4cc3ccc4O)[C@H](O)c3ccc(c(Cl)c3)Oc3cc2cc(c3O[C@@H]2O[C@H](CO)[C@@H](O)[C@H](O)[C@H]2O[C@H]2C[C@](C)(N)[C@H](O)[C@H](C)O2)Oc2ccc(cc2Cl)[C@H]1O [vancomycin],bactericidal activity (MBC90 compared to MIC90),[1]; clinical isolates of MRSA,bactericidal
CCC[C@@H]1C[C@@H](C(=O)N[C@@H]([C@H]2O[C@H](SC)[C@H](O)[C@@H](O)[C@H]2O)[C@H](C)Cl)N(C)C1 [clind],MIC50 (15),[1]; MRSA clinical isolates,>64 µg/mL
